Measured values published in ChEMBL document CHEMBL1201862, “PubChem BioAssay data set” (2004).
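Each compound was tested at five concentrations against cells in 96-well plates for 48 hours. GI50: concentration for 50% inhibition of growth.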 Calls of active or inactive are those of the source. Rule as the data show it: active = GI50 up to about 1.1 µM and inactive = higher.

Tests used:
Assay in all cases: DTP human tumour cell line panel, 48 h
786-0 = system: 786-0
A498 = system: A498
A549 = system: A549
ACHN = system: ACHN
CAKI-1 = system: CAKI-1
CCRF-CEM = system: CCRF-CEM
COLO 205 = system: COLO 205
DLD-1 = system: DLD-1
DMS-273 = system: DMS-273
DU-145 = system: DU-145
EKVX = system: EKVX
HCC 2998 = system: HCC 2998
HCT-116 = system: HCT-116
HCT-15 = system: HCT-15
HL-60 = system: HL-60
HOP-18 = system: HOP-18
HOP-62 = system: HOP-62
HOP-92 = system: HOP-92
HT-29 = system: HT-29
Hs-578T = system: Hs-578T
IGROV-1 = system: IGROV-1
K562 = system: K562
KM-20L2 = system: KM-20L2
KM12 = system: KM12
LOX IMVI = system: LOX IMVI
M14 = system: M14
M19-MEL = system: M19-MEL
MCF7 = system: MCF7
MDA-MB-231 = system: MDA-MB-231
MDA-MB-435 = system: MDA-MB-435
MDA-N = system: MDA-N
MOLT-4 = system: MOLT-4
Malme-3M = system: Malme-3M
NCI-H226 = system: NCI-H226
NCI-H23 = system: NCI-H23
NCI-H460 = system: NCI-H460
NCI-H522 = system: NCI-H522
NCI/ADR-RES = system: NCI/ADR-RES
OVCAR-3 = system: OVCAR-3
OVCAR-4 = system: OVCAR-4
OVCAR-5 = system: OVCAR-5
OVCAR-8 = system: OVCAR-8
PC-3 = system: PC-3
RPMI-8226 = system: RPMI-8226
RXF 393 = system: RXF 393
SF-268 = system: SF-268
SF-295 = system: SF-295
SF-539 = system: SF-539
SK-MEL-28 = system: SK-MEL-28
SK-MEL-2 = system: SK-MEL-2
SK-MEL-5 = system: SK-MEL-5
SK-OV-3 = system: SK-OV-3
SN12C = system: SN12C
SNB-19 = system: SNB-19
SNB-75 = system: SNB-75
SNB-78 = system: SNB-78
SR = system: SR
SW-620 = system: SW-620
T47D = system: T47D
TK-10 = system: TK-10
U-251 = system: U-251
UACC-257 = system: UACC-257
UACC-62 = system: UACC-62
UO-31 = system: UO-31
XF498 = system: XF498
DMS-114 = system: DMS-114
LXFL 529 = system: LXFL 529

Measured: GI50

C(=N/NC1=NCCN1)/c1c2ccccc2c(/C=N\NC2=NCCN2)c2ccccc12
inactive: DLD-1 2830 nM | MDA-MB-231 6560 nM | NCI/ADR-RES 88300 nM | UO-31 9440 nM
19700 nM: HCT-15
active: 786-0 99.1 nM | A498 324 nM | A549 36.9 nM | ACHN 221 nM | CAKI-1 526 nM | CCRF-CEM 40.8 nM | COLO 205 54 nM | DMS-273 75.9 nM | DU-145 61.9 nM | EKVX 149 nM | HCC 2998 140 nM | HCT-116 60.3 nM | HL-60 52.8 nM | HOP-18 168 nM | HOP-62 96.6 nM | HOP-92 73.1 nM | HT-29 92.3 nM | Hs-578T 60 nM | IGROV-1 211 nM | K562 66.4 nM | KM-20L2 265 nM | KM12 88.5 nM | LOX IMVI 93.1 nM | M14 171 nM | M19-MEL 75.7 nM | MCF7 56.8 nM | MDA-MB-435 37.6 nM | MDA-N 113 nM | MOLT-4 37.6 nM | Malme-3M 160 nM | NCI-H226 96.6 nM | NCI-H23 129 nM | NCI-H460 27.9 nM | NCI-H522 69.8 nM | OVCAR-3 184 nM | OVCAR-4 302 nM | OVCAR-5 239 nM | OVCAR-8 252 nM | PC-3 68.7 nM | RPMI-8226 82.6 nM | RXF 393 155 nM | SF-268 73.8 nM | SF-295 383 nM | SF-539 100 nM | SK-MEL-28 259 nM | SK-MEL-2 147 nM | SK-MEL-5 260 nM | SK-OV-3 177 nM | SN12C 111 nM | SNB-19 74.6 nM | SNB-75 73.5 nM | SNB-78 171 nM | SR 8.79 nM | SW-620 113 nM | T47D 110 nM | TK-10 1030 nM | U-251 61 nM | UACC-257 344 nM | UACC-62 90.2 nM | XF498 82.8 nM

CCC1=CC2CN3CCc4c([nH]c5ccccc45)C(C(=O)OC)(C2)C13 (configuration not stated)
44200 nM: HCT-15
inactive: A498 48100 nM | A549 47600 nM | CAKI-1 20800 nM | CCRF-CEM 50500 nM | COLO 205 39400 nM | DLD-1 45900 nM | DMS-114 39400 nM | DMS-273 48600 nM | EKVX 36700 nM | HCC 2998 48300 nM | HCT-116 35600 nM | HL-60 36700 nM | HOP-18 47900 nM | HOP-62 43600 nM | HOP-92 12400 nM | HT-29 22700 nM | IGROV-1 47300 nM | K562 39200 nM | KM-20L2 1220 nM | KM12 20000 nM | LOX IMVI 61800 nM | M19-MEL 42600 nM | MCF7 44600 nM | MOLT-4 39800 nM | Malme-3M 50400 nM | NCI-H226 11000 nM | NCI-H23 45600 nM | NCI-H460 52600 nM | NCI-H522 45700 nM | NCI/ADR-RES 45500 nM | OVCAR-3 42800 nM | OVCAR-4 37200 nM | OVCAR-5 7400 nM | OVCAR-8 11000 nM | RPMI-8226 18500 nM | RXF 393 35700 nM | SF-268 54500 nM | SF-295 45200 nM | SF-539 50900 nM | SK-MEL-28 53300 nM | SK-MEL-2 67800 nM | SK-MEL-5 40700 nM | SK-OV-3 69300 nM | SN12C 47400 nM | SNB-19 46000 nM | SNB-75 48400 nM | SNB-78 64700 nM | SW-620 41900 nM | U-251 7260 nM | UACC-257 54800 nM | UACC-62 37800 nM | UO-31 32200 nM | XF498 35700 nM

[N-]=[N+]=N/C1=C/CCCCC(=O)C1
> 100000 nM: HCT-15
inactive: 786-0 > 100000 nM | A549 > 100000 nM | CAKI-1 > 100000 nM | CCRF-CEM > 100000 nM | COLO 205 > 100000 nM | DLD-1 > 100000 nM | DMS-114 > 100000 nM | DMS-273 > 100000 nM | EKVX > 100000 nM | HCC 2998 > 100000 nM | HL-60 > 100000 nM | HOP-62 > 100000 nM | HOP-92 51400 nM | HT-29 > 100000 nM | IGROV-1 > 100000 nM | K562 > 100000 nM | KM-20L2 > 100000 nM | LOX IMVI > 100000 nM | LXFL 529 > 100000 nM | M14 > 100000 nM | M19-MEL > 100000 nM | MOLT-4 > 100000 nM | Malme-3M > 100000 nM | NCI-H23 > 100000 nM | NCI-H460 > 100000 nM | NCI-H522 71100 nM | OVCAR-4 > 100000 nM | OVCAR-5 > 100000 nM | OVCAR-8 > 100000 nM | RPMI-8226 > 100000 nM | RXF 393 > 100000 nM | SF-268 > 100000 nM | SK-MEL-28 > 100000 nM | SK-MEL-2 > 100000 nM | SK-MEL-5 > 100000 nM | SK-OV-3 > 100000 nM | SN12C > 100000 nM | SNB-19 > 100000 nM | SNB-75 > 100000 nM | SNB-78 > 100000 nM | SW-620 > 100000 nM | TK-10 > 100000 nM | UACC-257 > 100000 nM | UACC-62 > 100000 nM | UO-31 > 100000 nM | XF498 > 100000 nM

COc1cccc2c1C(=O)c1c(O)c3c(c(O)c1C2=O)C[C@](O)(C(=O)CO)CC3OC1CC(N)C(OC2CCCCO2)C(C)O1 (some centres not stated)
inactive: SK-MEL-28 1400 nM | SNB-78 1240 nM | UO-31 1480 nM
470 nM: HCT-15
active: A498 < 41.1 nM | A549 < 10 nM | CAKI-1 35.3 nM | CCRF-CEM < 37.5 nM | COLO 205 329 nM | DLD-1 675 nM | DMS-273 19 nM | EKVX 916 nM | HCC 2998 621 nM | HCT-116 65.9 nM | HL-60 < 10 nM | HOP-18 383 nM | HOP-62 212 nM | HOP-92 239 nM | HT-29 229 nM | IGROV-1 424 nM | K562 188 nM | KM-20L2 624 nM | KM12 375 nM | LOX IMVI 232 nM | MCF7 31.1 nM | MOLT-4 < 10 nM | Malme-3M 75.2 nM | NCI-H226 80.5 nM | NCI-H23 51 nM | NCI-H460 < 10 nM | NCI-H522 356 nM | OVCAR-3 828 nM | OVCAR-4 659 nM | OVCAR-5 293 nM | OVCAR-8 267 nM | RPMI-8226 112 nM | RXF 393 430 nM | SF-268 293 nM | SF-295 48.3 nM | SF-539 123 nM | SK-MEL-2 1050 nM | SK-MEL-5 115 nM | SK-OV-3 531 nM | SN12C 148 nM | SNB-19 94.8 nM | SNB-75 243 nM | SW-620 59.8 nM | U-251 65.8 nM | UACC-257 995 nM | UACC-62 208 nM | XF498 67.8 nM
